Data taken from article PMC3580847 (Biochemistry, 2013).

Experiments:
Assay type in all cases: cell-based, Human
U2OS cells = experiment: Proliferation assay; details: 2 h treatment in DMEM pH 6.0 or 7.4, MTS at 48 h
M4A4 cells = experiment: Proliferation assay; details: 2 h treatment in DMEM pH 6.0 or 7.4, MTS at 48 h
MDA-MB-231 cells = experiment: Proliferation assay; details: 2 h treatment in DMEM pH 6.0 or 7.4, MTS at 48 h
HeLa cells = system: HeLa cells

Row | Structure (SMILES) | inhibition of cell proliferation / toxicity (U2OS cells) | inhibition of cell proliferation / toxicity (U2OS cells; listed as Amanitin) | inhibition of cell proliferation / toxicity (M4A4 cells) | inhibition of cell proliferation / toxicity (M4A4 cells; listed as Amanitin) | inhibition of cell proliferation / toxicity (MDA-MB-231 cells) | inhibition of cell proliferation / toxicity (MDA-MB-231 cells; listed as Amanitin) | plasma membrane staining with AnnexinV-FITC (HeLa cells)
1 | CC[C@H](C)[C@@H]1NC(=O)CNC(=O)[C@@H]2Cc3c([nH]c4cc(O)ccc34)[S@+]([O-])C[C@H](NC(=O)CNC1=O)C(=O)N[C@@H](CC(N)=O)C(=O)N1C[C@H](O)C[C@H]1C(=O)N[C@@H]([C@@H](C)[C@@H](O)CO)C(=O)N2 [amanitin, α-Amanitin] | no toxicity was observed | no effect on proliferation | no toxicity was observed | no effect on proliferation | no toxicity was observed | no effect on proliferation | –
2 | CN[C@@H]1C[C@H]2O[C@@](C)([C@@H]1OC)n1c3ccccc3c3c4c(c5c6ccccc6n2c5c31)C(=O)NC4 [staurosporine] | – | – | – | – | – | – | stained with AnnexinV-FITC
